Experiments:
[1] = system: NF-κB dependent transcription in recombinant HeLa reporter cells; assay: TNFα-induced activation of NF-κB dependent transcription, luciferase reporter in HeLa cells; type: cell-based; settings: TNFα 20 ng/ml, 6 hours
Text: To test the ACE2 inhibitor GL1001 for anti-inflammatory activity relevant to IBD, effects of the compound on activation of NF-κB dependent transcription by TNFα were examined in recombinant reporter cells containing a construct with a luciferase reporter gene under control of NF-κB dependent regulatory sequences, thereby allowing detection of NF-κB dependent transcription by measuring reporter enzyme using a conventional luciferase activity assay based on detection of generated light.
In particular, HeLa cells (American Type Culture Collection) were grown in Dulbecco's modified Eagles medium (DMEM) supplemented with 10% fetal calf serum and transiently transfected with an NF-κB-luc construct (Stratagene, Inc.), as follows (with all incubation steps at 37 C unless otherwise indicated). Cells were seeded and grown to about 70% confluency in a 10 cm cell culture dish. Plasmid DNA (10 μg) was added to 1 ml serum free DMEM media in a tube. Fugene 6 transfection reagent (30 μl) (Roche) was then pipetted slowly into the tube and the contents were gently mixed by inversion. The mixture was incubated at room temperature for 15 minutes and then added dropwise to cells in one 10 cm dish. […] Bioluminescence was then measured using a Veritas luminometer (Turner BioSystems). […]

[2] = system: basal NF-κB dependent transcription; assay: In vivo basal NF-κB dependent transcription, abdominal imaging of NF-κB:Luc mice; settings: 300 mg/kg subcutaneous, 4 hours; p<0.01
Text: GL1001 was further tested for in vivo anti-inflammatory activity by examining its effects on basal levels of NF-κB dependent transcription in mice engineered in the germline with a construct containing an NF-κB enhancer linked to a luciferase gene (i.e., NF-κB:Luc mice), such that this NF-κB reporter construct is present in all cells of the mice.
More particularly, transgenic NF-κB:Luc mice were generated using three NF-κB response elements from the Igκ light chain promoter fused to a firefly luciferase gene as described by Carlsen et al. (2002) J. Immunol. 168:1441-1446. Pronuclear microinjection of purified construct DNA was used to generate transgenic founders in the C57BL/6 XCBA/J background. Founders were subsequently back crossed to the C57BL/6 albino background. […] Signal data were also quantitated and archived using the Living Image® software. Photons of light were quantitated using an oval region of interest (ROI) of varying sizes depending on the procedure, as described further below.
To test for in vivo effects of GL1001 on basal levels of NF-κB dependent transcription, male NF-κB:Luc mice were subjected to quantitative in vivo imaging of the abdominal area (using a fixed ROI of 2.76×3.7 cm) as described above, immediately before, and at 2, […]

[3] = system: activator protein-1 (AP-1); assay: In vivo basal reporter luciferase expression in AP-1:Luc mice; settings: data not shown
[4] = system: LPS induced NF-κB dependent transcription; assay: LPS induced NF-κB dependent transcription in extracted organs of NF-κB:Luc mice (luciferase lysate assay); type: in vivo; settings: 0.5 mg/kg LPS and GL1001 at 30 mg/1 g vs LPS alone (FIG. 6)
Text: For luciferase assays, organs were extracted and snap frozen in liquid nitrogen. All tissue samples were placed in lysis buffer with inhibitors (Passive Lysis Buffer (Promega) and Complete Mini Protease Inhibitor Cocktail (Roche, Indianapolis, Ind.)), and were homogenized using a tissue homogenizer (Handishear, Hand-held homogenizer, VirTis, Gardiner, N.Y.). Tissue homogenates were centrifuged and clarified lysates were used for luminometer assays and western blots. For the luminometer assays, Luciferase Assay Substrate (Luciferase Assay System, Promega) was prepared as indicated by the manufacturer and placed in disposable cuvettes. […] Background luminescence readings were obtained and the background readings were subtracted from the luminescent data. Protein concentrations were determined using the BCA Protein Assay Kit (Pierce, Rockford, Ill.) following the manufacturer's protocols and analyzed using a VERSAmax tunable microplate reader and associated Softmax Pro version 3.1.2 software (Molecular Devices, Sunnyvale Calif.). The luminescence for each of the protein lysates was calculated as arbitrary units of light per microgram of protein. […]
GL1001 was further tested for in vivo anti-inflammatory activity by examining its effects on bacterial LPS induced NF-κB dependent transcription, in NF-κB:Luc mice. […] Luciferase signal was quantitated from several regions of interest. […]

DSS-induced colitis = DSS-induced colitis in Balb/c mice, Example 7; type: in vivo
Experimental: A study was designed with six groups of Balb/c mice: naïve control, DSS followed by vehicle, DSS followed by GL1001 30 mg/kg/day, DSS followed by GL1001 100 mg/kg/day, DSS followed by GL1001 300 mg/kg/day, and DSS followed by sulfasalazine 150 mg/kg/day. Administration of DSS was via drinking water, from day 1 to day 6 of the study. […] Administration of vehicle, GL1001 and sulfasalazine was subcutaneous, twice daily, from day 6 until termination of the study (day 16). Body weight of each animal was measured at days 1, 3 and 5 (pre-initiation of GL1001 or sulfasalazine treatment) and at days 7, 9, 11 and 13 (post-initiation of GL1001 or sulfasalazine treatment). On these same days, disease activity measurements were recorded, including: • (a) rectal prolapse (0=no prolapse, 1=partial prolapse, 2=moderate prolapse, 3=full prolapse); • (b) stool consistency (0=solid pellet, 1=semi-solid, 2=soft stool, 3=diarrhea); and • (c) fecal occult blood (0=no blood present, 1=occult blood, 2=gross blood). At termination of the study, colon length was determined and histological analysis was conducted as in Example 6.

ulcerative colitis = settings: 5 mg/kg infusions; cited from earlier work
NF-κB activity = settings: at least in CD; cited from earlier work
Crohn's disease = settings: cited from earlier work
[5] = after a single dose, 5 mg/kg infusion

CC(C)C[C@H](N[C@@H](Cc1cncn1Cc1cc(Cl)cc(Cl)c1)C(=O)O)C(=O)O [GL1001, (S,S)-2-[1-carboxy-2-[3-(3,5-dichlorobenzyl)-3H-imidazol-4-yl]-ethylamino]-4-methylpentanoic acid]
inhibition of TNFα induced activation of NF-κB dependent transcription ([1]; 8 nM): over 80% | maximal inhibition of TNFα induced activation of NF-κB dependent transcription ([1]; 0.2 μM): over 95% | inhibition of basal in vivo levels of NF-κB dependent transcription in abdominal ROI [2]: over 40% | effect on basal in vivo levels of reporter luciferase expression in AP-1:Luc mice [3]: no significant effect | reduction of LPS induced NF-κB-dependent transcription in stomach [4]: about 37 fold

O=C(O)c1cc(/N=N/c2ccc(S(=O)(=O)Nc3ccccn3)cc2)ccc1O [sulfasalazine]
reduction in colon length (DSS-induced colitis; sulfasalazine 150 mg/kg b.i.d. subcutaneous (FIG. 19)): inhibits reduction | distal colon inflammation score (DSS-induced colitis; sulfasalazine 150 mg/kg b.i.d. subcutaneous (FIG. 20)): reduces | distal colon crypt score (DSS-induced colitis; sulfasalazine 150 mg/kg b.i.d. subcutaneous (FIG. 21)): reduces | distal colon total histopathology score (DSS-induced colitis; sulfasalazine 150 mg/kg b.i.d. subcutaneous (FIG. 23)): reduces | stool consistency (DSS-induced colitis; sulfasalazine 150 mg/kg b.i.d. subcutaneous, day 7 (FIG. 17)): No significant effect | fecal occult blood (DSS-induced colitis; sulfasalazine 150 mg/kg b.i.d. subcutaneous, day 7 (FIG. 18)): reduces | percentage weight loss (DSS-induced colitis; sulfasalazine 150 mg/kg b.i.d. subcutaneous, day 9 (FIG. 15)): No significant effect | rectal prolapse (DSS-induced colitis; sulfasalazine 150 mg/kg b.i.d. subcutaneous, day 9 (FIG. 16)): reduces

Infliximab: anti-TNFα monoclonal antibody
response rates in UC (ulcerative colitis): 50-70% | NF-κB activity (NF-κB activity): decrease | induction of remission rate in CD (Crohn's disease; [5]): 50% | response rate in CD (Crohn's disease; [5]): 80% | patients in whom the fistula responds (closes), fistulizing CD (Crohn's disease; human, in vivo): 68% | patients who develop an abscess, fistulizing CD (Crohn's disease; human, in vivo): 12%

From patent publication US7842709B2, “Method for treating inflammatory diseases of the digestive tract” (Ore Pharmaceuticals Inc., priority 2006, dated 2010)
